In PubChem BioAssay AID1963983 (Molecular Pharmacology Branch, DTP, NCI, 2024):

Tested on: 186277-243-T-J2-PDC multi-cell spheroid viability
Test: Anticancer human tumor 186277-243-T-J2-PDC patient-derived colon adenocarcinoma cell line growth inhibition [PI3K]
Details: for IC50: curve of first compound; for viability, T/C: stronger effect = lower value
Method in brief: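 Tumor cells were combined with HUVEC and MSCs into spheroids, then dosed with PI3K-inhibitor combinations over half-log ranges capped near clinical Cmax or 10 microM.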

[1] = second compound 0.00316 µM, first compound 0.0316 µM
[2] = second compound 0.00316 µM, first compound 0.1 µM
[3] = second compound 0.00316 µM, first compound 0.316 µM
[4] = second compound 0.00316 µM, first compound 1 µM
[5] = second compound 0.00316 µM, first compound 3.16 µM
[6] = second compound 0.00316 µM, first compound 10 µM
[7] = second compound 0.01 µM, first compound 0.0316 µM
[8] = second compound 0.01 µM, first compound 0.1 µM
[9] = second compound 0.01 µM, first compound 0.316 µM
[10] = second compound 0.01 µM, first compound 1 µM
[11] = second compound 0.01 µM, first compound 3.16 µM
[12] = second compound 0.01 µM, first compound 10 µM
[13] = second compound 0.0316 µM, first compound 0.0316 µM
[14] = second compound 0.0316 µM, first compound 0.1 µM
[15] = second compound 0.0316 µM, first compound 0.316 µM
[16] = second compound 0.0316 µM, first compound 1 µM
[17] = second compound 0.0316 µM, first compound 3.16 µM
[18] = second compound 0.0316 µM, first compound 10 µM
[19] = second compound 0.1 µM, first compound 0.0316 µM
[20] = second compound 0.1 µM, first compound 0.1 µM
[21] = second compound 0.1 µM, first compound 0.316 µM
[22] = second compound 0.1 µM, first compound 1 µM
[23] = second compound 0.1 µM, first compound 3.16 µM
[24] = second compound 0.1 µM, first compound 10 µM
[25] = second compound 0.316 µM, first compound 0.0316 µM
[26] = second compound 0.316 µM, first compound 0.1 µM
[27] = second compound 0.316 µM, first compound 0.316 µM
[28] = second compound 0.316 µM, first compound 1 µM
[29] = second compound 0.316 µM, first compound 3.16 µM
[30] = second compound 0.316 µM, first compound 10 µM
[31] = second compound 1 µM, first compound 0.0316 µM
[32] = second compound 1 µM, first compound 0.1 µM
[33] = second compound 1 µM, first compound 0.316 µM
[34] = second compound 1 µM, first compound 1 µM
[35] = second compound 1 µM, first compound 3.16 µM
[36] = second compound 1 µM, first compound 10 µM
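Further: spheroids exposed to compounds for seven days before viability reading.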
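Wherever viability, T/C is given: 100% = DMSO vehicle control viability.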

SMILES: CC1(C)CCC(Nc2ncc(C(F)(F)F)c(-c3c[nH]c4c(P(C)(C)=O)c(C#N)ccc34)n2)CN1 (stereo not drawn) + COc1c(OCCCN2CCOCC2)ccc2c3n(c(=NC(=O)c4cnc(N)nc4)nc12)CCN3
- IC50 (second compound 0.00316 µM): 3590 nM
- IC50 (second compound 0.01 µM): 1230 nM
- IC50 (second compound 0.0316 µM): < 31.6 nM
- IC50 (second compound 0.1 µM): < 31.6 nM
- IC50 (second compound 0.316 µM): < 31.6 nM
- IC50 (second compound 1 µM): < 31.6 nM
- viability, T/C [1]: 64.8%
- viability, T/C [2]: 57.4%
- viability, T/C [3]: 52%
- viability, T/C [4]: 55.4%
- viability, T/C [5]: 56.2%
- viability, T/C [6]: 0.33%
- viability, T/C [7]: 71.5%
- viability, T/C [8]: 54.7%
- viability, T/C [9]: 50.8%
- viability, T/C [10]: 54.1%
- viability, T/C [11]: 40.6%
- viability, T/C [12]: 0.85%
- viability, T/C [13]: 37.3%
- viability, T/C [14]: 36.6%
- viability, T/C [15]: 26.8%
- viability, T/C [16]: 25.9%
- viability, T/C [17]: 14.5%
- viability, T/C [18]: 1.27%
- viability, T/C [19]: 7.6%
- viability, T/C [20]: 10.5%
- viability, T/C [21]: 7.54%
- viability, T/C [22]: 6.56%
- viability, T/C [23]: 5.27%
- viability, T/C [24]: 1.02%
- viability, T/C [25]: 2.73%
- viability, T/C [26]: 3.91%
- viability, T/C [27]: 3.66%
- viability, T/C [28]: 3.38%
- viability, T/C [29]: 1.31%
- viability, T/C [30]: 0.34%
- viability, T/C [31]: 2.08%
- viability, T/C [32]: 1.57%
- viability, T/C [33]: 1.5%
- viability, T/C [34]: 1.26%
- viability, T/C [35]: 1.04%
- viability, T/C [36]: 0.42%

SMILES: C#Cc1c(F)ccc2cc(O)cc(-c3ncc4c(N5CC6CCC(C5)N6)nc(OCC56CCCN5CC(F)C6)nc4c3F)c12 (stereo not drawn) + Cc1nc(NC(=O)N2CCCC2C(N)=O)sc1-c1ccnc(C(C)(C)C(F)(F)F)c1
- IC50 (second compound 0.0316 µM): 74.4 nM
- IC50 (second compound 0.1 µM): 46.8 nM
- IC50 (second compound 0.316 µM): < 31.6 nM
- IC50 (second compound 1 µM): < 31.6 nM
- IC50 (second compound 3.16 µM): < 31.6 nM
- IC50 (second compound 10 µM): < 31.6 nM
- viability, T/C [13]: 84.8%
- viability, T/C [14]: 37.5%
- viability, T/C [15]: 20%
- viability, T/C [16]: 13.5%
- viability, T/C [17]: 10.9%
- viability, T/C [18]: 9.63%
- viability, T/C [19]: 60.6%
- viability, T/C [20]: 29.4%
- viability, T/C [21]: 15.1%
- viability, T/C [22]: 11.4%
- viability, T/C [23]: 8.35%
- viability, T/C [24]: 7.01%
- viability, T/C [25]: 30.4%
- viability, T/C [26]: 15.5%
- viability, T/C [27]: 7.34%
- viability, T/C [28]: 12.6%
- viability, T/C [29]: 6.32%
- viability, T/C [30]: 6.56%
- viability, T/C [31]: 17.2%
- viability, T/C [32]: 9.55%
- viability, T/C [33]: 10.3%
- viability, T/C [34]: 6.06%
- viability, T/C [35]: 4.61%
- viability, T/C [36]: 1.79%
- viability, T/C (second compound 3.16 µM, first compound 0.0316 µM): 12.9%
- viability, T/C (second compound 3.16 µM, first compound 0.1 µM): 5.57%
- viability, T/C (second compound 3.16 µM, first compound 0.316 µM): 3.63%
- viability, T/C (second compound 3.16 µM, first compound 1 µM): 4.54%
- viability, T/C (second compound 3.16 µM, first compound 3.16 µM): 3.29%
- viability, T/C (second compound 3.16 µM, first compound 10 µM): 1.25%
- viability, T/C (second compound 10 µM, first compound 0.0316 µM): 3.63%
- viability, T/C (second compound 10 µM, first compound 0.1 µM): 3.77%
- viability, T/C (second compound 10 µM, first compound 0.316 µM): 2.79%
- viability, T/C (second compound 10 µM, first compound 1 µM): 2%
- viability, T/C (second compound 10 µM, first compound 3.16 µM): 0.83%
- viability, T/C (second compound 10 µM, first compound 10 µM): 0.22%

SMILES: C[C@@H](NC(=O)c1ncnc(N)c1Cl)c1ncc(C(=O)Nc2cc(C(F)(F)F)c(Cl)cn2)s1 + CC(Nc1ccc2c(c1)OCCn1cc(N3C(=O)OCC3C(F)F)nc1-2)C(N)=O
- IC50 (second compound 0.00316 µM): > 10000 nM
- IC50 (second compound 0.01 µM): > 10000 nM
- IC50 (second compound 0.0316 µM): > 10000 nM
- IC50 (second compound 0.1 µM): 5930 nM
- IC50 (second compound 0.316 µM): 1850 nM
- IC50 (second compound 1 µM): 344 nM
- viability, T/C [1]: 83.2%
- viability, T/C [2]: 87.1%
- viability, T/C [3]: 93%
- viability, T/C [4]: 99.1%
- viability, T/C [5]: 113%
- viability, T/C [6]: 75.8%
- viability, T/C [7]: 103%
- viability, T/C [8]: 101%
- viability, T/C [9]: 96.2%
- viability, T/C [10]: 102%
- viability, T/C [11]: 108%
- viability, T/C [12]: 72.4%
- viability, T/C [13]: 98.6%
- viability, T/C [14]: 107%
- viability, T/C [15]: 101%
- viability, T/C [16]: 104%
- viability, T/C [17]: 93.7%
- viability, T/C [18]: 56.1%
- viability, T/C [19]: 97.4%
- viability, T/C [20]: 105%
- viability, T/C [21]: 96.4%
- viability, T/C [22]: 108%
- viability, T/C [23]: 72.8%
- viability, T/C [24]: 31.1%
- viability, T/C [25]: 85.9%
- viability, T/C [26]: 92.4%
- viability, T/C [27]: 87.3%
- viability, T/C [28]: 67.5%
- viability, T/C [29]: 34.4%
- viability, T/C [30]: 12.8%
- viability, T/C [31]: 56.2%
- viability, T/C [32]: 54.4%
- viability, T/C [33]: 51.4%
- viability, T/C [34]: 35.8%
- viability, T/C [35]: 13.7%
- viability, T/C [36]: 4.09%

SMILES: CC(C)n1nc(-c2ccc3oc(N)nc3c2)c2c(N)ncnc21 + COc1c(OCCCN2CCOCC2)ccc2c3n(c(=NC(=O)c4cnc(N)nc4)nc12)CCN3
- IC50 (second compound 0.00316 µM): 49.7 nM
- IC50 (second compound 0.01 µM): 42.2 nM
- IC50 (second compound 0.0316 µM): 5.38 nM
- IC50 (second compound 0.1 µM): < 0.316 nM
- IC50 (second compound 0.316 µM): < 0.316 nM
- IC50 (second compound 1 µM): < 0.316 nM
- viability, T/C (second compound 0.00316 µM, first compound 0.000316 µM): 108%
- viability, T/C (second compound 0.00316 µM, first compound 0.001 µM): 81.1%
- viability, T/C (second compound 0.00316 µM, first compound 0.00316 µM): 97.7%
- viability, T/C (second compound 0.00316 µM, first compound 0.01 µM): 82.9%
- viability, T/C [1]: 70.8%
- viability, T/C [2]: 21.2%
- viability, T/C (second compound 0.01 µM, first compound 0.000316 µM): 97.5%
- viability, T/C (second compound 0.01 µM, first compound 0.001 µM): 103%
- viability, T/C (second compound 0.01 µM, first compound 0.00316 µM): 86.5%
- viability, T/C (second compound 0.01 µM, first compound 0.01 µM): 89.8%
- viability, T/C [7]: 61%
- viability, T/C [8]: 14.7%
- viability, T/C (second compound 0.0316 µM, first compound 0.000316 µM): 74.2%
- viability, T/C (second compound 0.0316 µM, first compound 0.001 µM): 70.6%
- viability, T/C (second compound 0.0316 µM, first compound 0.00316 µM): 59.5%
- viability, T/C (second compound 0.0316 µM, first compound 0.01 µM): 39%
- viability, T/C [13]: 17.1%
- viability, T/C [14]: 6.6%
- viability, T/C (second compound 0.1 µM, first compound 0.000316 µM): 17%
- viability, T/C (second compound 0.1 µM, first compound 0.001 µM): 17.5%
- viability, T/C (second compound 0.1 µM, first compound 0.00316 µM): 14.3%
- viability, T/C (second compound 0.1 µM, first compound 0.01 µM): 9.3%
- viability, T/C [19]: 8.21%
- viability, T/C [20]: 3.59%
- viability, T/C (second compound 0.316 µM, first compound 0.000316 µM): 4.14%
- viability, T/C (second compound 0.316 µM, first compound 0.001 µM): 7.06%
- viability, T/C (second compound 0.316 µM, first compound 0.00316 µM): 4.26%
- viability, T/C (second compound 0.316 µM, first compound 0.01 µM): 4.69%
- viability, T/C [25]: 2.78%
- viability, T/C [26]: 2.4%
- viability, T/C (second compound 1 µM, first compound 0.000316 µM): 3.07%
- viability, T/C (second compound 1 µM, first compound 0.001 µM): 1.73%
- viability, T/C (second compound 1 µM, first compound 0.00316 µM): 3%
- viability, T/C (second compound 1 µM, first compound 0.01 µM): 1.5%
- viability, T/C [31]: 3.24%
- viability, T/C [32]: 1.04%
